Laboratory results reported in article PMC11491487 (Nature Communications, 2024).
Where “and” joins values, the source holds several entries; their conditions need not be identical. Equal values may be shown once.

Tests used:
[1] = target: T1, rRyR1 L4792S (Oryctolagus cuniculus, UniProt P11716, L4792S); experiment: time-lapse [Ca2+]ER fluorescence assay, HEK293 cells; type: cell-based, rabbit; conditions: n = 3
T1 construct: expressed in transfected cells

[2] = target: T2, chiRyR-I4657M/G4819E (Oryctolagus cuniculus, UniProt P11716, C4657M/F4564Y/G4819E/L4792S/R4563K); experiment: biochemical; type: biochemical, rabbit
[3] = target: T3, rRyR1 C4657I (Oryctolagus cuniculus, UniProt P11716, C4657I); experiment: time-lapse [Ca2+]ER fluorescence assay, HEK293 cells; type: cell-based, rabbit; conditions: n = 3
T3 construct: expressed in transfected cells

[4] = target: T2, chiRyR-I4657M/G4819E; experiment: cell-based; parameters: species or system rabbit
[5] = tested on: Drosophila melanogaster RyR M4758I; experiment: Bioassay of gene-edited Drosophila melanogaster (feeding, mortality after 24 h); type: in vivo; conditions: for death rate: 24 h
[6] = tested on: Spodoptera frugiperda; parameters: method as in PMID 31157506; conditions: in vivo; cited from earlier work
[7] = target: Sf RyR_I4734M/G4891E (Spodoptera frugiperda, UniProt A0A4P8L6R5, G4891E/I4734M); experiment: cell-based
[8] = target: Sf RyR (Spodoptera frugiperda, UniProt A0A4P8L6R5); experiment: time-lapse [Ca2+]ER fluorescence assay, HEK293 cells; type: cell-based
[9] = solubility comparison; type: physicochemical
[10] = tested on: Drosophila melanogaster RyR G4915E; experiment: Bioassay of gene-edited Drosophila melanogaster (feeding, mortality after 24 h); type: in vivo; conditions: for death rate: 24 h
[11] = target: T4, chiRyR (Oryctolagus cuniculus, UniProt P11716, C4657I/F4564Y/L4792S/R4563K); experiment: cell-based; parameters: species or system rabbit
[12] = target: T5, rRyR1 F4564Y (Oryctolagus cuniculus, UniProt P11716, F4564Y); experiment: time-lapse [Ca2+]ER fluorescence assay, HEK293 cells; type: cell-based, rabbit; conditions: n = 3
T5 construct: expressed in transfected cells

[13] = target: rRyR1 (Oryctolagus cuniculus, UniProt P11716); experiment: as above; type: cell-based, rabbit
[14] = target: T4, chiRyR; experiment: biochemical; type: biochemical, rabbit
[15] = target: T6, rRyR1 R4563K (Oryctolagus cuniculus, UniProt P11716, R4563K); experiment: time-lapse [Ca2+]ER fluorescence assay, HEK293 cells; type: cell-based, rabbit; conditions: n = 3
T6 construct: expressed in transfected cells

SMILES: CNC(=O)c1cc(Cl)cc(C)c1NC(=O)c1cc(Br)nn1-c1ncccc1Cl [CHL, chlorantraniliprole]
- EC50 [1]: 44.8 nM
- EC50 [2]: 14700 ± 1600 nM
- [3H]ryanodine binding (B/Bmax) ([2]; CHL 10.000 uM): 0.114 and 0.077 and 0.068 and 0.062
- [3H]ryanodine binding (B/Bmax) ([2]; CHL 100.000 uM): 0.193 and 0.240 and 0.178 and 0.209
- EC50 [3]: 167 nM
- F/F0 ([4]; CHL 1e-5 uM): 0.8891 and 0.8803 and 0.8832
- F/F0 ([4]; CHL 0.0001 uM): 0.8817 and 0.9289 and 0.9243
- F/F0 ([4]; CHL 0.001 uM): 0.9674 and 0.9402 and 0.9553
- F/F0 ([4]; CHL 0.005 uM): 0.9942 and 0.938 and 0.9411
- F/F0 ([4]; CHL 0.01 uM): 0.9479 and 0.955 and 0.9174
- F/F0 ([4]; CHL 0.1 uM): 0.9465 and 0.9355 and 0.9097
- F/F0 ([4]; CHL 0.3 uM): 0.9306 and 0.9655 and 0.9439
- F/F0 ([4]; CHL 0.5 uM): 0.9145 and 0.8971 and 0.9399
- F/F0 ([4]; CHL 1 uM): 0.9091 and 0.8544 and 0.9005
- F/F0 ([4]; CHL 3 uM): 0.8328 and 0.8713 and 0.8682
- F/F0 ([4]; CHL 10 uM): 0.808 and 0.819 and 0.7565
- F/F0 ([4]; CHL 30 uM): 0.7257 and 0.6335 and 0.5826
- F/F0 ([4]; CHL 50 uM): 0.6512 and 0.5528 and 0.5088
- F/F0 ([4]; CHL 100 uM): 0.5781 and 0.4912
- F/F0 ([4]; CHL 200 uM): 0.6274 and 0.5179
- F/F0 ([4]; CHL 500 uM): 0.5379 and 0.5182
- EC50 ([4]; EC50, diamide insecticides, n = 3): 10300 nM and 14600 nM
- LD50 ([5]; 24 h feeding, n = 30): 127.9 nM
- death rate ([5]; CHL 0.010 uM): 0%
- death rate ([5]; CHL 0.033 uM): 0% and 10%
- death rate ([5]; CHL 0.100 uM): 60% and 40%
- death rate ([5]; CHL 0.333 uM): 80% and 70%
- death rate ([5]; CHL 1.000 uM): 100% and 90%
- death rate ([5]; CHL 3.333 uM): 100%
- death rate ([5]; CHL 10.000 uM): 100%
- fold decreased sensitivity [6]: 225 fold
- EC50 [7]: 9100 nM
- F/F0 ([7]; CHL 0.1 uM): 0.9609 and 0.9591 and 1.0034
- F/F0 ([7]; CHL 1 uM): 0.987 and 0.977 and 0.9858
- F/F0 ([7]; CHL 10 uM): 0.5363 and 0.6213 and 0.7359
- F/F0 ([7]; CHL 50 uM): 0.3469 and 0.3845 and 0.4143
- F/F0 ([7]; CHL 100 uM): 0.3178 and 0.3119 and 0.3455
- F/F0 ([7]; CHL 150 uM): 0.3313 and 0.3179 and 0.3624
- F/F0 ([7]; CHL 200 uM): 0.3347 and 0.3244 and 0.3692
- F/F0 ([8]; CHL 1e-5 uM): 0.9606 and 0.9752 and 0.9813
- F/F0 ([8]; CHL 0.001 uM): 1.004 and 1.002 and 1.001
- F/F0 ([8]; CHL 0.005 uM): 0.7229 and 0.7431 and 0.7294
- F/F0 ([8]; CHL 0.01 uM): 0.3097 and 0.3094 and 0.2868
- F/F0 ([8]; CHL 0.1 uM): 0.2582 and 0.2663 and 0.2776
- F/F0 ([8]; CHL 0.5 uM): 0.268 and 0.2944 and 0.2596
- F/F0 ([8]; CHL 1 uM): 0.2734 and 0.2934 and 0.2867
- F/F0 ([8]; CHL 10 uM): 0.2774 and 0.2809 and 0.2932
- F/F0 ([8]; CHL 50 uM): 0.2939 and 0.2698 and 0.3129
- EC50 ([8]; n = 3, read-out: EC50): 5.5 nM
- relative solubility [9]: more soluble than TET
- LD50 ([10]; 24 h feeding, n = 30, heterozygous G4915E/G): 1.6 mM
- death rate ([10]; CHL 1.000 uM): 0%
- death rate ([10]; CHL 3.333 uM): 0%
- death rate ([10]; CHL 10.000 uM): 0% and 10%
- death rate ([10]; CHL 33.333 uM): 10%
- death rate ([10]; CHL 100.000 uM): 10% and 20%
- EC50 [11]: 1.6 nM
- F/F0 ([11]; CHL 1e-5 uM): 0.9477 and 0.9176 and 0.9126
- F/F0 ([11]; CHL 2.5e-5 uM): 0.9199 and 0.9229 and 0.931
- F/F0 ([11]; CHL 5e-5 uM): 0.8883 and 0.929 and 0.9092
- F/F0 ([11]; CHL 0.0001 uM): 0.9049 and 0.9411 and 0.8175
- F/F0 ([11]; CHL 0.00025 uM): 0.8945 and 0.8973 and 0.8398
- F/F0 ([11]; CHL 0.0005 uM): 0.6917 and 0.6365 and 0.6304
- F/F0 ([11]; CHL 0.0025 uM): 0.5122 and 0.4849 and 0.4622
- F/F0 ([11]; CHL 0.005 uM): 0.6454 and 0.5393 and 0.4867
- F/F0 ([11]; CHL 0.01 uM): 0.4912 and 0.5046 and 0.4772
- F/F0 ([11]; CHL 0.025 uM): 0.5158 and 0.4751 and 0.4992
- F/F0 ([11]; CHL 0.05 uM): 0.5374 and 0.5173 and 0.549
- F/F0 ([11]; CHL 0.1 uM): 0.4915 and 0.5257 and 0.4507
- F/F0 ([11]; CHL 1 uM): 0.5356 and 0.5199 and 0.5646
- F/F0 ([11]; CHL 3 uM): 0.5195 and 0.4435 and 0.4631
- F/F0 ([11]; CHL 10 uM): 0.5287 and 0.4905 and 0.48
- F/F0 ([11]; CHL 30 uM): 0.5354 and 0.4682 and 0.4761
- F/F0 ([11]; CHL 50 uM): 0.5799 and 0.4954 and 0.5274
- EC50 [12]: 556 nM
- EC50 [13]: 4900 nM
- EC50 [14]: 1.7 ± 0.3 nM
- [3H]ryanodine binding (B/Bmax) ([14]; CHL 0.010 uM): 0.191 and 0.230 and 0.144 and 0.262
- [3H]ryanodine binding (B/Bmax) ([14]; CHL 0.100 uM): 0.168 and 0.180 and 0.215
- [3H]ryanodine binding (B/Bmax) ([14]; CHL 1.000 uM): 0.199 and 0.219 and 0.215 and 0.312
- [3H]ryanodine binding (B/Bmax) ([14]; CHL 10.000 uM): 0.246 and 0.234 and 0.250 and 0.215
- [3H]ryanodine binding (B/Bmax) ([14]; CHL 100.000 uM): 0.207 and 0.242 and 0.223 and 0.191
- EC50 [15]: 62.6 nM
